{
  "source": "patent US20240024491A1",
  "about": "“MANNOSYLATED AMINE DEXTRAN DRUG DELIVERY VEHICLES WITH DEGRADABLE DISULFIDE/CARBONATE LINKERS TARGETING PAYLOADS TO CD206 EXPRESSING CELLS” (Navidea Biopharmaceuticals, Inc., priority 2022, published 2024)",
  "key": {"human macrophages": {"system": "human macrophages", "assay": "Human macrophage cell culture assay, surface marker expression (MFI) by flow cytometry", "format": "cell-based", "conditions": "MAD-PAC3.5 or equal molar equivalent concentration of free paclitaxel; vs no drug control", "method": "In this assay, human peripheral blood monocytes (hPBMCs) were incubated for five days in RPMI+10% FBS+1x Penicillin/Streptomycin/L-glutamine+5Ong/mlGM-CSF (complete medium) at a concentration of 500,000 monocytes per well in 48 well tissue culture plates. […] GM-CSF induces the macrophages to adopt an activated phenotype that is intermediate between the extremes of M1 or M2. […] Saline and Vehicle (MAD without a drug payload, 23.3 μg/ml) were added as alternative supplements to other cultures as negative controls. The macrophage cell cultures were incubated with the supplemented complete medium for 24 hours after which it was removed and replaced with fresh complete medium. The macrophage cultures were then incubated for an additional three days. The three-day post treatment incubation was performed to permit assessment of durable changes in macrophage phenotypes.\nAfter the additional three-day incubation in fresh complete medium, the cells were harvested and evaluated by flow cytometry for viability (DAPI) or expression of macrophage surface markers. These markers are representative of markers that are frequently considered as indicative of either M1-like or M2-like phenotypes or are known immune checkpoint receptors. The evaluated cell surface markers included CD206, CD163, CD80, CD86, MHC1, MHC2, SIRPa, and PD-1 using antibodies specific for each marker. […] The outputs of the flow cytometry assays were mean fluorescent intensities (MFI). Macrophages differentiated from monocytes collected from three separate donors were evaluated for all treatments. For each donor's macrophages, all experiments were run in triplicate."}, "CT26 cells": {"system": "CT26 cells", "assay": "CT26/Balb-c syngeneic mouse tumor model", "format": "in vivo", "conditions": "intravenous injections on treatment days 1, 4, 7 and 11; MAD-PAC3.5 127 μg/injection, free paclitaxel molar equivalent", "method": "Mice were implanted with CT26 cells that were permitted to grow and become established until they had attained tumor volumes of 80-100 mm 3. Tumor bearing mice (n=10/treatment group) were administered test articles by intravenous injections on 4 days (treatment days, 1, 4, 7, and 11). […] Tumor volumes were measured and recorded at regular intervals."}},
  "data": [
    {"smiles": "CC(=O)O[C@H]1C(=O)[C@@]2(C)[C@H]([C@H](OC(=O)c3ccccc3)[C@]3(O)C[C@H](OC(=O)[C@H](O)[C@@H](NC(=O)c4ccccc4)c4ccccc4)C(C)=C1C3(C)C)[C@]1(OC(C)=O)CO[C@@H]1C[C@@H]2O", "note": "[free paclitaxel, paclitaxel]", "values": [
      {"measurement": "expression of CD80", "setting": "human macrophages", "result": "increased the expression"},
      {"measurement": "expression of CD86", "setting": "human macrophages", "result": "increased the expression"},
      {"measurement": "expression of CD163", "setting": "human macrophages", "result": "modestly increased expression"},
      {"measurement": "expression of CD206", "setting": "human macrophages", "result": "modestly increased expression"},
      {"measurement": "expression of MHC1", "setting": "human macrophages", "result": "not significantly altered"},
      {"measurement": "expression of MHC2", "setting": "human macrophages", "result": "not significantly altered"},
      {"measurement": "expression of PD1", "setting": "human macrophages", "result": "not by free paclitaxel"},
      {"measurement": "expression of SIRPa", "setting": "human macrophages", "result": "not significantly altered"},
      {"measurement": "mean tumor volume on treatment day 14 compared to saline", "setting": "CT26 cells", "result": "modestly decreased mean tumor volumes"}
    ]}
  ]
}
